{"source": "BindingDB's records for doi:10.1016/S0960-894X(97)00434-4", "about": "(1997)", "key": {"[1]": {"assay": "Compound was tested for the inhibition of Escherichia coli glutamyl-t-RNA synthetase"}, "[2]": {"assay": "Compound was tested for the inhibition of aminoacyl tRNA Synthetase"}}, "data": [{"smiles": "NC(CCC(=O)O)C(=O)OC[C@@H]1CCCN1", "note": "(stereo not given in full)", "values": [{"measurement": "Ki", "setting": "[1]", "result": 11400, "unit": "µM"}]}, {"smiles": "NC(CCC(=O)O)C(=O)OC[C@H]1CCCN1", "note": "(stereo not given in full)", "values": [{"measurement": "Ki", "setting": "[1]", "result": 380, "unit": "µM"}]}, {"smiles": "NC(CCC(=O)O)C(=O)OC[C@H]1C[C@@H](O)C[C@@H](CO)N1", "note": "(stereo partly drawn) [4-ammonio-5-{[(2R,4S,6S)-4-hydroxy-6-(hydroxymethyl)piperidin-2-yl]methoxy}-5-oxopentanoate]", "values": [{"measurement": "Ki", "setting": "[1]", "result": 20, "unit": "µM"}]}, {"smiles": "NC(CCC(=O)O)C(=O)OC[C@H]1OC(O)[C@H](O)[C@@H]1O", "note": "(stereo not given in full)", "values": [{"measurement": "Ki", "setting": "[1]", "result": 500, "unit": "µM"}]}, {"smiles": "COc1cc(CNC(=O)CCCC/C=C/C(C)C)ccc1O", "note": "[Zostrix]", "values": [{"measurement": "Ki", "setting": "[2]", "result": 42, "unit": "µM"}]}]}
